From patent US12396459B2, “Synergistically effective herbicide composition comprising pyridate and at least one defined 4-HPPD inhibitor” (BELCHIM CROP PROTECTION NV, priority 2018, dated 2025)

What was measured:
Format in all cases: in vivo
Brassica napus = assay: Field trial post-emergence in maize: BRSNN; details: # = 1, g a.c./ha: PYR 300, MES 100, PYR + MES 300 + 90
Procedure: (§1) Herbicidal activity of herbicide compositions according to the first aspect of the present invention with regard to different types of unwanted vegetation was determined during trials performed on test fields (field trials). Individual compositions comprising pyridate and individual compositions comprising a defined 4-HPPD inhibitor are compared with a herbicide composition according to the invention comprising both pyridate and a defined 4-HPPD inhibitor. The expected activity of the combination of the active compounds pyridate and a defined 4-HPPD inhibitor is calculated according to above mentioned calculation method by Colby, in order to evaluate a synergistic effect between pyridate and a defined 4-HPPD inhibitor.
(§2) Herbicidal activity was determined by applying herbicide compositions on emerged unwanted vegetation on fields where maize was cultivated. Pyridate and a defined 4-HPPD inhibitor were applied as a tank mixture by mixing these active compounds prior to use in a spray tank. The corresponding mixture was in the form of a spray liquor. Besides, spray liquors of individual compositions comprising pyridate and of individual compositions comprising a defined 4-HPPD inhibitor were used. Test plants of unwanted vegetation with a growth stage corresponding to BBCH 10-18 (according to the extended BBCH-scale) were sprayed with the active compound preparations such that particular desired amounts of active compounds are applied per unit area. Spray liquor was diluted with water to arrive at an application volume of 50 to 450 L/ha. At a specified number of days after application (DAA), the degree of damage to the unwanted vegetation is rated in % of plants of unwanted vegetation that were killed, which was assessed by visually controlling the plants.

Cirsium arvense = assay: Field trial post-emergence in maize: CIRAR; details: # = 1, g a.c./ha: PYR 300, MES 100, PYR + MES 300 + 90
Procedure: as §1, §2

Datura stramonium = assay: Field trial post-emergence in maize: DATST; details: 7-14 DAA; # = 2; g a.c./ha: PYR 300, MES 100, PYR + MES 300 + 90
Procedure: as §1
Herbicidal activity was determined by applying herbicide compositions on emerged unwanted vegetation on fields where maize was cultivated. Pyridate and a defined 4-HPPD inhibitor were applied as a tank mixture by mixing these active compounds prior to use in a spray tank. The corresponding mixture was in the form of a spray liquor. […] At a specified number of days after application (DAA), the degree of damage to the unwanted vegetation is rated in % of plants of unwanted vegetation that were killed, which was assessed by visually controlling the plants.

Geranium sp. = assay: Field trial post-emergence in maize: GERSS; details: # = 1, g a.c./ha: PYR 300, MES 100, PYR + MES 300 + 90
Procedure: as §1, §2

Sonchus oleraceus = assay: Field trial post-emergence in maize: SONOL; details: # = 1, g a.c./ha: PYR 300, MES 100, PYR + MES 300 + 90
Procedure: as §1, §2

Veronica persica = assay: Field trial post-emergence in maize: VERPE; details: for herbicidal effect (h.e.): g a.c./ha: PYR 300, MES 100, PYR + MES 300 + 90
Procedure: as §1, §2

Amaranthus retroflexus = assay: Field trial post-emergence in maize: AMARE; details: 13-14 DAA, # = 1
Procedure: as §1, §2

Solanum nigrum = assay: Examples 6-8 herbicidal effect: SOLNI; details: 7 DAA
Geranium dissectum = assay: Examples 6-8 herbicidal effect: GERDI; details: 7 DAA
Matricaria chamomilla = assay: Examples 6-8 herbicidal effect: MATCH; details: 7 DAA
Setaria verticillata [1] = assay: Examples 6-8 herbicidal effect: SETVE; details: 7 DAA
Atriplex patula = assay: Field trial post-emergence in maize: ATXPA
Procedure: as §1, §2
(§3) Example 1 concerns a herbicide composition comprising a combination of pyridate and mesotrione, which was applied post-emergence on unwanted vegetation on a field where maize was cultivated, according to the test conditions mentioned above.

Convolvulus arvensis = assay: Field trial post-emergence in maize: CONAR
Procedure: as §1, §2, §3

Erodium ciconium = assay: Field trial post-emergence in maize: EROCC
Procedure: as §1, §2, §3

Galium aparine = assay: Field trial post-emergence in maize: GALAP
Procedure: as §1, §2, §3

Kickxia elatine = assay: Field trial post-emergence in maize: KICEL
Procedure: as §1, §2, §3

Polygonum aviculare = assay: Field trial post-emergence in maize: POLAV
Procedure: as §1, §2, §3

Setaria verticillata [2] = assay: Field trial post-emergence in maize: SETVE
Procedure: as §1, §2, §3

Viola arvensis = assay: Field trial post-emergence in maize: VIOAR
Procedure: as §1, §2, §3

[3] = g a.c./ha: PYR 10, TEM 22, PYR + TEM 10 + 100
[4] = g a.c./ha: PYR 300, PYR + MES 300 + 80
[5] = g a.c./ha: PYR 300, SCT 300, PYR + SCT 300 + 300
[6] = g a.c./ha: PYR 300, TEM 100, PYR + TEM 300 + 100
[7] = g a.c./ha: PYR 450, SCT 450, PYR + SCT 300 + 450
[8] = g a.c./ha: PYR 600, PYR + SCT 600 + 300
[9] = g a.c./ha: PYR 900, TEM 44, PYR + TEM 900 + 44

CCCCCCCCSC(=O)Oc1cc(Cl)nnc1-c1ccccc1 [PYR, (6-chloro-3-phenylpyridazin-4-yl) octylsulfanylformate]
herbicidal effect (h.e.) (Brassica napus; 7-14 DAA): 50% | herbicidal effect (h.e.) (Brassica napus; 18-28 DAA): 11% | herbicidal effect (h.e.) (Brassica napus; 31-48 DAA): 6% | herbicidal effect (h.e.) (Cirsium arvense; 7-14 DAA): 23% | herbicidal effect (h.e.) (Cirsium arvense; 31-48 DAA): 49% | herbicidal effect (h.e.) (Datura stramonium): 70% | herbicidal effect (h.e.) (Geranium sp.; 7-14 DAA): 13% | herbicidal effect (h.e.) (Geranium sp.; 18-28 DAA): 0% | herbicidal effect (h.e.) (Geranium sp.; 31-48 DAA): 0% | herbicidal effect (h.e.) (Sonchus oleraceus; 7-14 DAA): 93% | herbicidal effect (h.e.) (Sonchus oleraceus; 18-28 DAA): 51% | herbicidal effect (h.e.) (Sonchus oleraceus; 31-48 DAA): 37% | herbicidal effect (h.e.) (Veronica persica; 7-14 DAA, # = 4): 58% | herbicidal effect (h.e.) (Veronica persica; 31-48 DAA, # = 5): 44% | PYR h.e. (Veronica persica; VERPE 14-20 DAA 300 g a.c./ha): 0% | PYR h.e. (Veronica persica; VERPE 14-20 DAA 600 g a.c./ha): 20% | PYR h.e. (Veronica persica; VERPE 14-20 DAA 900 g a.c./ha): 40% | PYR h.e. (Veronica persica; VERPE 24-31 DAA 300 g a.c./ha): 10% | PYR h.e. (Veronica persica; VERPE 24-31 DAA 600 g a.c./ha): 0% | PYR h.e. (Veronica persica; VERPE 24-31 DAA 900 g a.c./ha): 0% | herbicidal effect (h.e.) (Amaranthus retroflexus; g a.c./ha: PYR 450, MES 144, PYR + MES 450 + 144): 72% | herbicidal effect (h.e.) (Amaranthus retroflexus; g a.c./ha: PYR 450, TOP 12.4, PYR + TOP 450 + 12.4): 72% | herbicidal effect (h.e.) (Solanum nigrum; [3]): 0% | herbicidal effect (h.e.) (Solanum nigrum; [4]): 11% | herbicidal effect (h.e.) (Solanum nigrum; [5]): 10% | herbicidal effect (h.e.) (Solanum nigrum; [6]): 10% | herbicidal effect (h.e.) (Solanum nigrum; [7]): 10% | herbicidal effect (h.e.) (Solanum nigrum; [8]): 28% | herbicidal effect (h.e.) (Solanum nigrum; [9]): 100% | herbicidal effect (h.e.) (Geranium dissectum; [3]): 0% | herbicidal effect (h.e.) (Geranium dissectum; [4]): 5% | herbicidal effect (h.e.) (Geranium dissectum; [5]): 15% | herbicidal effect (h.e.) (Geranium dissectum; [6]): 5% | herbicidal effect (h.e.) (Geranium dissectum; [7]): 30% | herbicidal effect (h.e.) (Geranium dissectum; [8]): 15% | herbicidal effect (h.e.) (Geranium dissectum; [9]): 10% | herbicidal effect (h.e.) (Matricaria chamomilla; [3]): 0% | herbicidal effect (h.e.) (Matricaria chamomilla; [4]): 0% | herbicidal effect (h.e.) (Matricaria chamomilla; [5]): 0% | herbicidal effect (h.e.) (Matricaria chamomilla; [6]): 0% | herbicidal effect (h.e.) (Matricaria chamomilla; [7]): 0% | herbicidal effect (h.e.) (Matricaria chamomilla; [8]): 0% | herbicidal effect (h.e.) (Matricaria chamomilla; [9]): 0% | herbicidal effect (h.e.) (Setaria verticillata [1]; [3]): 0% | herbicidal effect (h.e.) (Setaria verticillata [1]; [4]): 0% | herbicidal effect (h.e.) (Setaria verticillata [1]; [5]): 10% | herbicidal effect (h.e.) (Setaria verticillata [1]; [6]): 0% | herbicidal effect (h.e.) (Setaria verticillata [1]; [7]): 7% | herbicidal effect (h.e.) (Setaria verticillata [1]; [8]): 10% | herbicidal effect (h.e.) (Setaria verticillata [1]; [9]): 0% | PYR h.e. (Atriplex patula; ATXPA 24-31 DAA 300 g a.c./ha): 43% | PYR h.e. (Atriplex patula; ATXPA 24-31 DAA 600 g a.c./ha): 49% | PYR h.e. (Convolvulus arvensis; CONAR 14-20 DAA 300 g a.c./ha): 35% | PYR h.e. (Convolvulus arvensis; CONAR 14-20 DAA 600 g a.c./ha): 40% | PYR h.e. (Convolvulus arvensis; CONAR 14-20 DAA 900 g a.c./ha): 45% | PYR h.e. (Convolvulus arvensis; CONAR 24-31 DAA 600 g a.c./ha): 48% | PYR h.e. (Convolvulus arvensis; CONAR 24-31 DAA 900 g a.c./ha): 45% | PYR h.e. (Erodium ciconium; EROCC 14-20 DAA 300 g a.c./ha): 89% | PYR h.e. (Erodium ciconium; EROCC 14-20 DAA 600 g a.c./ha): 96% | PYR h.e. (Galium aparine; GALAP 14-20 DAA 300 g a.c./ha): 20% | PYR h.e. (Galium aparine; GALAP 14-20 DAA 600 g a.c./ha): 30% | PYR h.e. (Galium aparine; GALAP 14-20 DAA 900 g a.c./ha): 35% | PYR h.e. (Galium aparine; GALAP 24-31 DAA 300 g a.c./ha): 18% | PYR h.e. (Galium aparine; GALAP 24-31 DAA 600 g a.c./ha): 30% | PYR h.e. (Galium aparine; GALAP 24-31 DAA 900 g a.c./ha): 38% | PYR h.e. (Kickxia elatine; KICEL 14-20 DAA 300 g a.c./ha): 0% | PYR h.e. (Kickxia elatine; KICEL 14-20 DAA 600 g a.c./ha): 0% | PYR h.e. (Kickxia elatine; KICEL 14-20 DAA 900 g a.c./ha): 0% | PYR h.e. (Kickxia elatine; KICEL 24-31 DAA 300 g a.c./ha): 0% | PYR h.e. (Kickxia elatine; KICEL 24-31 DAA 600 g a.c./ha): 0% | PYR h.e. (Kickxia elatine; KICEL 24-31 DAA 900 g a.c./ha): 0% | PYR h.e. (Polygonum aviculare; POLAV 14-20 DAA 300 g a.c./ha): 18% | PYR h.e. (Polygonum aviculare; POLAV 24-31 DAA 300 g a.c./ha): 17% | PYR h.e. (Setaria verticillata [2]; SETVE 14-20 DAA 300 g a.c./ha): 29% | PYR h.e. (Setaria verticillata [2]; SETVE 14-20 DAA 600 g a.c./ha): 47% | PYR h.e. (Setaria verticillata [2]; SETVE 14-20 DAA 900 g a.c./ha): 75% | PYR h.e. (Setaria verticillata [2]; SETVE 24-31 DAA 300 g a.c./ha): 29% | PYR h.e. (Setaria verticillata [2]; SETVE 24-31 DAA 600 g a.c./ha): 33% | PYR h.e. (Setaria verticillata [2]; SETVE 24-31 DAA 900 g a.c./ha): 60% | PYR h.e. (Viola arvensis; VIOAR 14-20 DAA 300 g a.c./ha): 31% | PYR h.e. (Viola arvensis; VIOAR 14-20 DAA 600 g a.c./ha): 34% | PYR h.e. (Viola arvensis; VIOAR 14-20 DAA 900 g a.c./ha): 50%
